The structures appear in SMILES notation.

The values below come from patent US8309734B2 (Hoffmann-La Roche Inc., priority 2008, dated 2012).

The target of this assay is T1, human GPBAR1 receptor (Homo sapiens, UniProt Q8TDU6).
T1 construct: expressed in transfected cells
T1 sequence (Q8TDU6 1-330): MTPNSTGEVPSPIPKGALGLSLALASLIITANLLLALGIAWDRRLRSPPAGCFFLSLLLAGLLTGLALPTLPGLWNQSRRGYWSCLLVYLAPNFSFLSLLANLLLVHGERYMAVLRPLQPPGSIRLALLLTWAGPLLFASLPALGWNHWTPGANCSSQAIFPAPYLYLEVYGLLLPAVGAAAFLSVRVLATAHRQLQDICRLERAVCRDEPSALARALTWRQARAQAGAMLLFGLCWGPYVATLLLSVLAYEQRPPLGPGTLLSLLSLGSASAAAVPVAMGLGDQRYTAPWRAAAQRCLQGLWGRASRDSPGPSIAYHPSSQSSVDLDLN
In words: functional cAMP assay in CHO-dhfr(minus) cells expressing human GPBAR1 receptors. To be noted: cAMP increase (TR-FRET) in CHO-dhfr(minus) cells expressing human GPBAR1; compounds incubated 30 min at 30° C. It counts as cell-based. On the procedure: The final clone was verified by DNA sequence analysis. The plasmid was transfected into CHO cells deficient in dihydrofolate reductase activity (CHO-dhfr-) using Lipofectamine plus (Invitrogen). Clones were isolated in limited dilution conditions and identified by activities in the cAMP assay using lithocholic acid as agonist.
The growth medium was exchanged with Krebs Ringer Bicarbonate buffer with 1 mM IBMX and incubated at 30° C. for 30 mM. Compounds were added to a final assay volume of 100 μl and incubated for 30 min at 30° C. […] The time-resolved energy transfer is measured by a TRF reader (Evotec Technologies GmbH, Hamburg Germany), equipped with a ND:YAG laser as excitation source. The plate is measured twice with the excitation at 355 nm and at the emission with a delay of 100 ns and a gate of 100 ns, total exposure time 10s at 730 (bandwith 30 nm) or 645 nm (bandwith 75 nm), respectively.
EC50 values were determined using Activity Base analysis (ID Business Solution, Limited). […] Specificity for GPBAR1 was tested in non-transfected CHO cells in the same assay as above.
What is called EC50 is the concentration that produces a half-maximal response. Read a high EC50 as a need for much substance. For the molecule `O=C(c1cccnc1Oc1cc(Cl)ccc1Cl)N1CCCc2cc(F)c(F)cc21` [Example 38, [2-(2,5-Dichloro-phenoxy)-pyridin-3-yl]-(6,7-difluoro-3,4-dihydro-2H-quinolin-1-yl)-methanone], the EC50 was 57 nM.
The same measure for `O=C1CCN(C(=O)c2cccnc2Oc2cc(Cl)ccc2Cl)c2ccccc21` [Example 128, 1-[2-(2,5-Dichloro-phenoxy)-pyridine-3-carbonyl]-2,3-dihydro-1H-quinolin-4-one]: 918 nM.
Take `Cc1ccc(Oc2ncccc2C(=O)N2CCCc3ccccc32)cc1Cl` [Example 9, [2-(3-Chloro-4-methyl-phenoxy)-pyridin-3-yl]-(3,4-dihydro-2H-quinolin-1-yl)-methanone]: the EC50 was found to be 1010 nM.
On to `CN(C(=O)c1cccnc1Oc1cc(Cl)ccc1Cl)c1ccc(F)cc1F` [Example 66, 2-(2,5-Dichloro-phenoxy)-N-(2,4-difluoro-phenyl)-N-methyl-nicotinamide], for which the EC50 amounted to 518 nM.
`O=C(c1cccnc1Oc1cc(Cl)ccc1Cl)N1CCOc2ccc(F)cc21` [Example 72, [2-(2,5-Dichloro-phenoxy)-pyridin-3-yl]-(6-fluoro-2,3-dihydro-benzo[1,4]oxazin-4-yl)-methanone]: the EC50 amounted to 163 nM.
Turning to `COc1ncccc1N(C)C(=O)c1cccnc1Oc1cc(Cl)ccc1Cl` [Example 48, 2-(2,5-Dichloro-phenoxy)-N-(2-methoxy-pyridin-3-yl)-N-methyl-nicotinamide], the EC50 came out at 66 nM.
With `O=C(c1ccncc1Oc1cc(Cl)ccc1Cl)N1CCOc2ccccc21` [Example 185, [3-(2,5-Dichloro-phenoxy)-pyridin-4-yl]-(2,3-dihydro-benzo[1,4]oxazin-4-yl)-methanone] the figure was 92 nM.
With `Cc1cccc(C)c1N(C)C(=O)c1cccnc1Oc1cc(Cl)ccc1Cl` [Example 52, 2-(2,5-Dichloro-phenoxy)-N-(2,6-dimethyl-phenyl)-N-methyl-nicotinamide] the figure was 116 nM; with `O=C(c1ccccc1Oc1cc(Cl)ccc1Cl)N1CCCc2ccccc21` [Example 110, [2-(2,5-Dichloro-phenoxy)-phenyl]-(3,4-dihydro-2H-quinolin-1-yl)-methanone], 29 nM; with `Cc1ccc2c(c1)CCCN2C(=O)c1cccnc1Oc1cccc(C(F)(F)F)c1` [Example 4, (6-Methyl-3,4-dihydro-2H-quinolin-1-yl)-[2-(3-trifluoromethyl-phenoxy)-pyridin-3-yl]-methanone], 1400 nM.
In turn, `O=C(c1cccnc1Oc1cc(Cl)ccc1Cl)N1CCN(C2CC2)c2ccccc21` [Example 125, (4-Cyclopropyl-3,4-dihydro-2H-quinoxalin-1-yl)-[2-(2,5-dichloro-phenoxy)-pyridin-3-yl]-methanone] yielded a half-maximal effective concentration (EC50) of 4 nM.
Molecule `O=C(c1ccncc1Oc1cc(Cl)ccc1Cl)N1CCCc2ccccc21` [Example 89, [3-(2,5-Dichloro-phenoxy)-pyridin-4-yl]-(3,4-dihydro-2H-quinolin-1-yl)-methanone] displayed an EC50 of 7 nM.
In the case of `CN(C(=O)c1cccnc1Oc1cc(Cl)ccc1Cl)c1ccccc1-n1cccc1` [Example 65, 2-(2,5-Dichloro-phenoxy)-N-methyl-N-(2-pyrrol-1-yl-phenyl)-nicotinamide], the EC50 was 357 nM.
Consider `COC(=O)c1ccc(C#Cc2cc(Cl)c(Oc3ncccc3C(=O)N3CCN(C4CC4)c4ccccc43)cc2Cl)cc1Cl` [Example 167, 2-Chloro-4-{2,5-dichloro-4-[3-(4-cyclopropyl-3,4-dihydro-2H-quinoxaline-1-carbonyl)-pyridin-2-yloxy]-phenylethynyl}-benzoic acid methyl ester], for which the response was half-maximal at 211 nM (EC50).
Regarding `O=C(c1cccnc1Oc1cc(Cl)ccc1Cl)N1CCCc2ccc(Cl)cc21` [Example 33, (7-Chloro-3,4-dihydro-2H-quinolin-1-yl)-[2-(2,5-dichloro-phenoxy)-pyridin-3-yl]-methanone], the half-maximal effective concentration (EC50) stood at 203 nM.
The same measure for `O=C(c1cc(F)cnc1Oc1cccc(Cl)c1)N1CCCc2cc(F)c(F)cc21` [Example 85, [2-(3-Chloro-phenoxy)-5-fluoro-pyridin-3-yl]-(6,7-difluoro-3,4-dihydro-2H-quinolin-1-yl)-methanone]: 231 nM; for `COc1ccc(F)cc1N(C)C(=O)c1cccnc1Oc1cc(Cl)ccc1Cl` [Example 54, 2-(2,5-Dichloro-phenoxy)-N-(5-fluoro-2-methoxy-phenyl)-N-methyl-nicotinamide]: 35 nM.
With `CC1CCc2ccccc2N1C(=O)c1cc(F)cnc1Oc1cc(Cl)ccc1Cl` (stereo not drawn) [Example 80, [2-(2,5-Dichloro-phenoxy)-5-fluoro-pyridin-3-yl]-(2-methyl-3,4-dihydro-2H-quinolin-1-yl)-methanone] the figure was 630 nM.
`COc1cc(C(=O)O)ccc1CCc1cc(Cl)c(Oc2ncccc2C(=O)N2CCN(C3CC3)c3ccccc32)cc1Cl` [Example 171, 4-(2-{2,5-Dichloro-4-[3-(4-cyclopropyl-3,4-dihydro-2H-quinoxaline-1-carbonyl)-pyridin-2-yloxy]-phenyl}-ethyl)-3-methoxy-benzoic acid] gave an EC50 of 102 nM.
The molecule `COC(=O)CNC(=O)c1cc(Cl)c(Oc2ncccc2C(=O)N2CCN(C3CC3)c3ccccc32)cc1Cl` [Example 183, {2,5-Dichloro-4-[3-(4-cyclopropyl-3,4-dihydro-2H-quinoxaline-1-carbonyl)-pyridin-2-yloxy]-benzoylamino}-acetic acid methyl ester] had an EC50 of 341 nM. Compared with the last molecule, the EC50 is about 3.3-fold higher.
Turning to `O=C(c1ccccc1Oc1cc(Cl)ccc1Cl)N1CCN(C2CC2)c2ccccc21` [Example 184, (4-Cyclopropyl-3,4-dihydro-2H-quinoxalin-1-yl)-[2-(2,5-dichloro-phenoxy)-phenyl]-methanone], the EC50 was determined as 22 nM.
Turning to `Cc1cc(Cl)ccc1N(C)C(=O)c1cccnc1Oc1cc(Cl)ccc1Cl` [Example 56, N-(4-Chloro-2-methyl-phenyl)-2-(2,5-dichloro-phenoxy)-N-methyl-nicotinamide], the EC50 was 1390 nM.
Molecule `COc1ccccc1N(C)C(=O)c1ccncc1Oc1cc(Cl)ccc1Cl` [Example 95, 3-(2,5-Dichloro-phenoxy)-N-(2-methoxy-phenyl)-N-methyl-isonicotinamide] had an EC50 of 28 nM.
The same measure for `O=C(c1cccnc1Oc1cc(Cl)ccc1Cl)N1CCN(C2COC2)c2ccccc21` [Example 127, [2-(2,5-Dichloro-phenoxy)-pyridin-3-yl]-(4-oxetan-3-yl-3,4-dihydro-2H-quinoxalin-1-yl)-methanone]: 14 nM.
As to `CN(C(=O)c1cccnc1Oc1cc(Cl)ccc1Cl)c1ccccc1F` [Example 63, 2-(2,5-Dichloro-phenoxy)-N-(2-fluoro-phenyl)-N-methyl-nicotinamide], the EC50 is 170 nM. Against the preceding molecule, the EC50 is about 12-fold higher.
For `O=C(c1cccnc1Oc1cc(Cl)cc(Cl)c1)N1CCCc2ccccc21` [Example 17, [2-(3,5-Dichloro-phenoxy)-pyridin-3-yl]-(3,4-dihydro-2H-quinolin-1-yl)-methanone], the EC50 is 176 nM.
With `O=C(c1cccnc1Oc1cccc(Cl)c1)N1CCOc2ccccc21` [Example 30, [2-(3-Chloro-phenoxy)-pyridin-3-yl]-(2,3-dihydro-benzo[1,4]oxazin-4-yl)-methanone], the EC50 came out at 436 nM.
`O=C(c1ccncc1Oc1cc(Cl)ccc1Cl)N1CCCc2cc(F)ccc21` [Example 91, [3-(2,5-Dichloro-phenoxy)-pyridin-4-yl]-(6-fluoro-3,4-dihydro-2H-quinolin-1-yl)-methanone] displayed an EC50 of 15 nM.
As to `COc1ncccc1N(C)C(=O)c1ccncc1Oc1ccc(Cl)cc1Cl` [Example 102, 3-(2,4-Dichloro-phenoxy)-N-(2-methoxy-pyridin-3-yl)-N-methyl-isonicotinamide], the response was half-maximal at 703 nM (EC50). This EC50 is about 47-fold higher than that of the molecule before.
The same measure for `CC(CN1CCN(C(=O)c2cc(F)cnc2Oc2cc(Cl)ccc2Cl)c2ccccc21)C(=O)O` (stereo not drawn) [Example 157, 3-{4-[2-(2,5-Dichloro-phenoxy)-5-fluoro-pyridine-3-carbonyl]-3,4-dihydro-2H-quinoxalin-1-yl}-2-methyl-propionic acid]: 1680 nM; for `COC(=O)CCCCCN1CCN(C(=O)c2cc(F)cnc2Oc2cc(Cl)ccc2Cl)c2ccccc21` [Example 160, 6-{4-[2-(2,5-Dichloro-phenoxy)-5-fluoro-pyridine-3-carbonyl]-3,4-dihydro-2H-quinoxalin-1-yl}-hexanoic acid methyl ester]: 724 nM.
In turn, `COc1cccc(C)c1N(C)C(=O)c1cccnc1Oc1cc(Cl)ccc1Cl` [Example 53, 2-(2,5-Dichloro-phenoxy)-N-(2-methoxy-6-methyl-phenyl)-N-methyl-nicotinamide] had an EC50 of 321 nM. Against the preceding molecule, the EC50 is about 2.3-fold lower.
`O=C(c1cccnc1Oc1cc(Cl)ccc1Cl)N1CCOc2ccccc21` [Example 36, [2-(2,5-Dichloro-phenoxy)-pyridin-3-yl]-(2,3-dihydro-benzo[1,4]oxazin-4-yl)-methanone] registered an EC50 of 135 nM.
